Experimental data: ChEMBL document CHEMBL6078657, “Thiazolidinedione-based structure modification of ergosterol peroxide provides thiazolidinedione-conjugated derivatives as potent agents against breast cancer cells through a PI3K/AKT/mTOR pathway” (Bioorg Med Chem, 2025)
pIC50: −log10 of the molar value.

Columns and labels:
[1] = system: MCF7; assay: Induction of cell cycle arrest in human MCF7 cells assessed as accumulation of cells at G2/M phase at 1 uM measured after 48 hrs by PI staining based flow cytometry analysis (reference value: 16.91%); type: functional
[2] = system: MCF7; assay: Antiproliferative activity against human MCF7 cells assessed as cell viability measured after 48 hrs incubation by MTT assay; type: functional, cell-based; details: MCF7, 48 h
[3] = system: MCF7; assay: Induction of apoptosis in human MCF7 cells assessed as decrease in mitochondrial membrane potential by measuring increase in JC-1 monomer (green fluorescence) at 1 uM incubated for 48 hrs by JC-1 staining based flow cytometry analysis (reference value: 2.96%); type: functional; design: scale not given: the % may be the effect or the level left
[4] = Toxicity in healthy BALB/c mouse assessed as pathological changes in spleen at 40 mg/kg, ip daily for 14 consecutive days by HE staining based assay; type: organism-based; details: in vivo, 336 h, time 14 day
[5] = system: MCF7; assay: Induction of apoptosis in human MCF7 cells assessed as early apoptotic cells at 1 uM measured after 48 hrs incubation by Annexin V-FITC/PI double staining assay (reference value: 5.73%); type: functional
[6] = system: MCF7; assay: Induction of cell cycle arrest in human MCF7 cells assessed as accumulation of cells at G2/M phase at 3 uM measured after 48 hrs by PI staining based flow cytometry analysis (reference value: 16.91%); type: functional
[7] = system: MCF7; assay: Induction of apoptosis in human MCF7 cells assessed as viable cells at 3 uM measured after 48 hrs incubation by Annexin V-FITC/PI double staining assay (reference value: 92.8%); type: functional; details: read-out: Activity
[8] = system: MCF7; assay: Induction of apoptosis in human MCF7 cells assessed as necrotic cells at 6 uM measured after 48 hrs incubation by Annexin V-FITC/PI double staining assay (reference value: 0.77%); type: functional
[9] = system: HepG2; assay: Antiproliferative activity against human HepG2 cells assessed as cell viability measured after 48 hrs incubation by MTT assay; type: functional, cell-based; details: HepG2, 48 h
[10] = system: MCF7; assay: Induction of apoptosis in human MCF7 cells assessed as necrotic cells at 1 uM measured after 48 hrs incubation by Annexin V-FITC/PI double staining assay (reference value: 0.77%); type: functional
[11] = system: MCF7; assay: Induction of cell cycle arrest in human MCF7 cells assessed as accumulation of cells at G0/G1 phase at 3 uM measured after 48 hrs by PI staining based flow cytometry analysis (reference value: 58.42%); type: functional
[12] = Toxicity in healthy BALB/c mouse assessed as pathological changes in lungs at 40 mg/kg, ip daily for 14 consecutive days by HE staining based assay; type: organism-based; details: in vivo, 336 h, time 14 day

CC(C)[C@@H](C)/C=C/[C@@H](C)[C@H]1CC[C@@H]2[C@]1(C)CC[C@H]1[C@]23C=C[C@]2(C[C@@H](OC(=O)NCCNC(=O)CN4C(=O)S/C(=C\c5cccc6ccccc56)C4=O)CC[C@]12C)OO3
Activity [1]: 18.98% | pIC50 [2]: 5.51 | Activity [3]: 12.9% | Activity [4]: Non-toxic | Activity [5]: 13.7% | Activity [6]: 10.83% | viability at 3 µM [7]: 75.7% | Activity [8]: 0.72% | pIC50 [9]: 5.26 | Activity [10]: 0.99% | Activity [11]: 80.77% | Activity [12]: Non-toxic
